According to the NIST ThermoML archive (doi:10.1021/je900482x):

Experiment: isobaric coefficient of expansion
Settings: Liquid, Microcalorimeter

CCCCCC[n+]1ccn(C)c1.O=S(=O)([N-]S(=O)(=O)C(F)(F)F)C(F)(F)F
isobaric coefficient of expansion
Settings	5000 kPa	10000 kPa	15000 kPa	20000 kPa	25000 kPa	30000 kPa	35000 kPa	40000 kPa	45000 kPa	50000 kPa
278.15 K	0.000674 1/K	0.000662 1/K	0.000654 1/K	0.000641 1/K	0.000635 1/K	0.000628 1/K	0.000619 1/K	0.000612 1/K	0.000602 1/K	0.000596 1/K
288.15 K	0.000668 1/K	0.000658 1/K	0.000647 1/K	0.000637 1/K	0.00063 1/K	0.00062 1/K	0.000614 1/K	0.000604 1/K	0.000597 1/K	0.000592 1/K
298.15 K	0.000664 1/K	0.000654 1/K	0.000643 1/K	0.000633 1/K	0.000626 1/K	0.000615 1/K	0.000605 1/K	0.000596 1/K	0.00059 1/K	0.000584 1/K
308.15 K	0.000659 1/K	0.000648 1/K	0.000637 1/K	0.000628 1/K	0.000618 1/K	0.000609 1/K	0.0006 1/K	0.000594 1/K	0.000585 1/K	0.000577 1/K
318.15 K	0.000654 1/K	0.000647 1/K	0.000637 1/K	0.000623 1/K	0.000615 1/K	0.000606 1/K	0.000597 1/K	0.000588 1/K	0.000578 1/K	0.000571 1/K
328.15 K	0.00065 1/K	0.000639 1/K	0.000632 1/K	0.000621 1/K	0.000609 1/K	0.000599 1/K	0.000591 1/K	0.000582 1/K	0.000574 1/K	0.000567 1/K
338.15 K	0.000649 1/K	0.000637 1/K	0.000627 1/K	0.000616 1/K	0.000605 1/K	0.000597 1/K	0.000588 1/K	0.00058 1/K	0.000571 1/K	0.000567 1/K
348.15 K	0.000644 1/K	0.000635 1/K	0.000623 1/K	0.00061 1/K	0.000602 1/K	0.000592 1/K	0.000584 1/K	0.000575 1/K	0.000567 1/K	0.000559 1/K

CCCC[n+]1cccc(C)c1.F[B-](F)(F)F [1-butyl-3-methylpyridinium tetrafluoroborate]
isobaric coefficient of expansion
Settings	5000 kPa	10000 kPa	15000 kPa	20000 kPa	25000 kPa	30000 kPa	35000 kPa	40000 kPa	45000 kPa	50000 kPa
278.15 K	0.000607 1/K	0.000601 1/K	0.000596 1/K	0.000591 1/K	0.000584 1/K	0.000581 1/K	0.000576 1/K	0.00057 1/K	0.000566 1/K	0.00056 1/K
288.15 K	0.0006 1/K	0.000593 1/K	0.000588 1/K	0.000585 1/K	0.000581 1/K	0.000575 1/K	0.000569 1/K	0.000564 1/K	0.000562 1/K	0.000558 1/K
298.15 K	0.000594 1/K	0.000589 1/K	0.000582 1/K	0.000577 1/K	0.000572 1/K	0.000566 1/K	0.00056 1/K	0.000556 1/K	0.000551 1/K	0.000549 1/K
308.15 K	0.000588 1/K	0.000582 1/K	0.000576 1/K	0.000569 1/K	0.000563 1/K	0.00056 1/K	0.000555 1/K	0.000551 1/K	0.000545 1/K	0.000541 1/K
318.15 K	0.00058 1/K	0.000578 1/K	0.000573 1/K	0.000565 1/K	0.00056 1/K	0.000554 1/K	0.000551 1/K	0.000545 1/K	0.000539 1/K	0.000535 1/K
328.15 K	0.000575 1/K	0.00057 1/K	0.000568 1/K	0.00056 1/K	0.000554 1/K	0.000549 1/K	0.000545 1/K	0.000539 1/K	0.000535 1/K	0.000531 1/K
338.15 K	0.000571 1/K	0.000567 1/K	0.000562 1/K	0.000554 1/K	0.000549 1/K	0.000545 1/K	0.000539 1/K	0.000536 1/K	0.00053 1/K	0.000529 1/K
348.15 K	0.000568 1/K	0.000562 1/K	0.000557 1/K	0.000554 1/K	0.000548 1/K	0.000542 1/K	0.00054 1/K	0.000534 1/K	0.000529 1/K	0.000526 1/K

CCn1cc[n+](C)c1.F[B-](F)(F)F [1-ethyl-3-methylimidazolium tetrafluoroborate]
isobaric coefficient of expansion
Settings	5000 kPa	10000 kPa	15000 kPa	20000 kPa	25000 kPa	30000 kPa	35000 kPa	40000 kPa	45000 kPa	50000 kPa
278.15 K	0.000613 1/K	0.000605 1/K	0.000596 1/K	0.000591 1/K	0.000585 1/K	0.00058 1/K	0.000574 1/K	0.000567 1/K	0.00056 1/K	0.000555 1/K
288.15 K	0.000614 1/K	0.000602 1/K	0.000591 1/K	0.000587 1/K	0.000581 1/K	0.000574 1/K	0.000569 1/K	0.000561 1/K	0.000556 1/K	0.000554 1/K
298.15 K	0.000601 1/K	0.000596 1/K	0.000587 1/K	0.00058 1/K	0.000575 1/K	0.000568 1/K	0.000561 1/K	0.000554 1/K	0.000549 1/K	0.000545 1/K
308.15 K	0.000597 1/K	0.000589 1/K	0.000581 1/K	0.000573 1/K	0.000566 1/K	0.000561 1/K	0.000554 1/K	0.00055 1/K	0.000542 1/K	0.000537 1/K
318.15 K	0.000589 1/K	0.000585 1/K	0.000576 1/K	0.000569 1/K	0.000563 1/K	0.000556 1/K	0.00055 1/K	0.000544 1/K	0.000537 1/K	0.000532 1/K
328.15 K	0.000585 1/K	0.000578 1/K	0.000573 1/K	0.000566 1/K	0.000557 1/K	0.00055 1/K	0.000544 1/K	0.000537 1/K	0.000533 1/K	0.000528 1/K
338.15 K	0.000582 1/K	0.000574 1/K	0.000569 1/K	0.00056 1/K	0.000553 1/K	0.000549 1/K	0.00054 1/K	0.000534 1/K	0.000529 1/K	0.000525 1/K
348.15 K	0.000579 1/K	0.000574 1/K	0.000566 1/K	0.000562 1/K	0.000554 1/K	0.000546 1/K	0.00054 1/K	0.000533 1/K	0.000527 1/K	0.000521 1/K

CCCCCCn1cc[n+](C)c1.F[B-](F)(F)F [1-hexyl-3-methylimidazolium tetrafluoroborate]
isobaric coefficient of expansion
Settings	5000 kPa	10000 kPa	15000 kPa	20000 kPa	25000 kPa	30000 kPa	35000 kPa	40000 kPa	45000 kPa	50000 kPa
278.15 K	0.000621 1/K	0.000613 1/K	0.000605 1/K	0.000598 1/K	0.00059 1/K	0.000584 1/K	0.000576 1/K	0.000572 1/K	0.000562 1/K	0.000558 1/K
288.15 K	0.000616 1/K	0.000606 1/K	0.0006 1/K	0.000593 1/K	0.000586 1/K	0.000579 1/K	0.000572 1/K	0.000565 1/K	0.000558 1/K	0.000555 1/K
298.15 K	0.00061 1/K	0.000603 1/K	0.000595 1/K	0.000586 1/K	0.00058 1/K	0.000573 1/K	0.000564 1/K	0.000558 1/K	0.000552 1/K	0.000547 1/K
308.15 K	0.000605 1/K	0.000596 1/K	0.000589 1/K	0.000579 1/K	0.000572 1/K	0.000565 1/K	0.00056 1/K	0.000553 1/K	0.000545 1/K	0.000541 1/K
318.15 K	0.000599 1/K	0.000594 1/K	0.000585 1/K	0.000573 1/K	0.000566 1/K	0.00056 1/K	0.000554 1/K	0.000545 1/K	0.000537 1/K	0.000532 1/K
328.15 K	0.000594 1/K	0.000587 1/K	0.00058 1/K	0.000572 1/K	0.000562 1/K	0.000555 1/K	0.000549 1/K	0.00054 1/K	0.000536 1/K	0.000531 1/K
338.15 K	0.000591 1/K	0.000584 1/K	0.000575 1/K	0.000567 1/K	0.000558 1/K	0.000553 1/K	0.000544 1/K	0.000538 1/K	0.000532 1/K	0.000528 1/K
348.15 K	0.000588 1/K	0.000582 1/K	0.000572 1/K	0.000563 1/K	0.000555 1/K	0.000548 1/K	0.000543 1/K	0.000535 1/K	0.000529 1/K	0.000522 1/K
